Earlier results in patent US20180311347A1, “POLYMORPHISMS IN CACHEXIA PREDICT CLINICAL OUTCOMES OF COLORECTAL CANCER PATIENTS RECEIVING IRINOTECAN AND BEVACIZUMAB” (University of Southern California, priority 2017, published 2018).

Tested on: type I activin like receptor

NC(=O)c1ccc(-c2nc(-c3ccc4c(c3)OCO4)c(-c3ccccn3)[nH]2)cc1 [SB431542]
VEGF expression: decrease VEGF expression | angiogenesis: inhibit angiogenesis
